PubChem BioAssay AID220 (DTP/NCI, 2004)
“And” between values parts separate entries of the source, which are not always exact repeats. Equal entries are not always repeated. Records with an inconclusive call do not appear.

Test system: CD8F1 mice, subcutaneous mammary adenocarcinoma, T/C%
Experiment: NCI In Vivo Anticancer Drug Screen. Data for tumor model Mammary Adenocarcinoma CD8F1 (subcutaneous) in CD8F1
Conditions: higher = larger tumour
Procedure, shortened: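 Tumor-bearing mice, transplantable model; readout survival or tumor size; value = treated (T) / vehicle control (C).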

[1] = endpoint: median tumor weight (est.), dose: 12.5 mg/kg/injection, schedule: Q07DX005 (ip), vehicle: saline with Tween-80
[2] = endpoint: median tumor weight (est.), dose: 25.0 mg/kg/injection, schedule: Q07DX005 (ip), vehicle: saline with Tween-80
[3] = endpoint: median tumor weight (est.), dose: 50.0 mg/kg/injection, schedule: Q07DX005 (ip), vehicle: saline with Tween-80
[4] = endpoint: median tumor weight (est.), dose: 200.0 mg/kg/injection, schedule: Q07DX005 (ip), vehicle: saline with Tween-80
[5] = endpoint: median tumor weight change, dose: 62.5 mg/kg/injection, schedule: Q01DX001 (ip), vehicle: saline with Tween-80
[6] = endpoint: median tumor weight change, dose: 125.0 mg/kg/injection, schedule: Q01DX001 (ip), vehicle: saline with Tween-80
[7] = endpoint: median tumor weight change, dose: 125.0 mg/kg/injection, schedule: Q01DX001 (ip), vehicle: Klucel (hydroxypropylcellulose) (HPC)
[8] = endpoint: median tumor weight change, dose: 250.0 mg/kg/injection, schedule: Q01DX001 (ip), vehicle: Klucel (hydroxypropylcellulose) (HPC)
[9] = endpoint: median tumor weight change, dose: 500.0 mg/kg/injection, schedule: Q01DX001 (ip), vehicle: Klucel (hydroxypropylcellulose) (HPC)
[10] = endpoint: median tumor weight change, dose: 250.0 mg/kg/injection, schedule: Q01DX001 (ip), vehicle: saline with Tween-80

## CCN=C=NCCCN(C)C
endpoint: median tumor weight change, dose: 3.9 mg/kg/injection, schedule: Q01DX001 (ip), vehicle: saline
  T/C: 115 % of control
endpoint: median tumor weight change, dose: 7.81 mg/kg/injection, schedule: Q01DX001 (ip), vehicle: saline
  T/C: 112 % of control
endpoint: median tumor weight change, dose: 15.63 mg/kg/injection, schedule: Q01DX001 (ip), vehicle: saline
  T/C: 92 % of control
endpoint: median tumor weight change, dose: 31.25 mg/kg/injection, schedule: Q01DX001 (ip), vehicle: saline
  T/C: 109 % of control
endpoint: median tumor weight change, dose: 62.5 mg/kg/injection, schedule: Q01DX001 (ip), vehicle: saline
  T/C: 67 % of control

## C=CC(C)(C)n1cc(C2=C(O)C(=O)C(c3cn(C(C)(C)C=C)c4ccccc34)=C(O)C2=O)c2ccccc21
endpoint: median tumor weight (est.), dose: 2.5 mg/kg/injection, schedule: Q07DX005 (ip), vehicle: Klucel (hydroxypropylcellulose) (HPC)
  T/C: 122 % of control
endpoint: median tumor weight (est.), dose: 5.0 mg/kg/injection, schedule: Q07DX005 (ip), vehicle: Klucel (hydroxypropylcellulose) (HPC)
  T/C: 74 % of control
endpoint: median tumor weight (est.), dose: 10.0 mg/kg/injection, schedule: Q07DX005 (ip), vehicle: Klucel (hydroxypropylcellulose) (HPC)
  T/C: 91 % of control
endpoint: median tumor weight (est.), dose: 20.0 mg/kg/injection, schedule: Q07DX005 (ip), vehicle: Klucel (hydroxypropylcellulose) (HPC)
  T/C: 157 % of control
endpoint: median tumor weight (est.), dose: 40.0 mg/kg/injection, schedule: Q07DX005 (ip), vehicle: Klucel (hydroxypropylcellulose) (HPC)
  T/C: 168 % of control
endpoint: median tumor weight change, dose: 1.25 mg/kg/injection, schedule: Q01DX001 (ip), vehicle: DMSO
  T/C: 64 % of control
endpoint: median tumor weight change, dose: 2.5 mg/kg/injection, schedule: Q01DX001 (ip), vehicle: DMSO
  T/C: 77 % of control
endpoint: median tumor weight change, dose: 5.0 mg/kg/injection, schedule: Q01DX001 (ip), vehicle: DMSO
  T/C: 86 % of control
endpoint: median tumor weight change, dose: 10.0 mg/kg/injection, schedule: Q01DX001 (ip), vehicle: DMSO
  T/C: 110 % of control

## O=C1CN(CCN2CC(=O)N(CN3CCOCC3)C(=O)C2)CC(=O)N1CN1CCOCC1
endpoint: median tumor weight change, dose: 15.62 mg/kg/injection, schedule: Q01DX001 (ip), vehicle: water
  T/C: 53 % of control
endpoint: median tumor weight change, dose: 31.25 mg/kg/injection, schedule: Q01DX001 (ip), vehicle: water
  T/C: 64 % of control
endpoint: median tumor weight change, dose: 62.5 mg/kg/injection, schedule: Q01DX001 (ip), vehicle: water
  T/C: 96 % of control
endpoint: median tumor weight change, dose: 125.0 mg/kg/injection, schedule: Q01DX001 (ip), vehicle: water
  T/C: 40 % of control

## NNC(=O)c1ccncc1
endpoint: median tumor weight change, dose: 62.0 mg/kg/injection, schedule: Q01DX001 (ip), vehicle: saline
  T/C: 78 % of control
endpoint: median tumor weight change, dose: 125.0 mg/kg/injection, schedule: Q01DX001 (ip), vehicle: saline
  T/C: 70 % of control

## CC(/C=N/N=C(N)N)=N\N=C(N)N
endpoint: median tumor weight (est.), dose: 6.25 mg/kg/injection, schedule: Q07DX005 (ip), vehicle: saline
  T/C: 100 % of control
endpoint: median tumor weight (est.), dose: 12.5 mg/kg/injection, schedule: Q07DX005 (ip), vehicle: saline
  T/C: 85 % of control
endpoint: median tumor weight (est.), dose: 25.0 mg/kg/injection, schedule: Q07DX005 (ip), vehicle: saline
  T/C: 110 % of control
endpoint: median tumor weight (est.), dose: 100.0 mg/kg/injection, schedule: Q07DX005 (ip), vehicle: saline
  T/C: 67 % of control

## O=C(O)O
endpoint: median tumor weight (est.), dose: 50.0 mg/kg/injection, schedule: Q07DX005 (ip), vehicle: saline
  T/C: 104 % of control
endpoint: median tumor weight (est.), dose: 400.0 mg/kg/injection, schedule: Q07DX005 (ip), vehicle: saline
  T/C: 72 % of control and 55 % of control

## COC1=C2C[C@@H](C)C[C@@H](OC)[C@@H](O)[C@H](C)/C=C(\C)[C@@H](OC(N)=O)[C@H](OC)/C=C\C=C(/C)C(=O)NC(=CC1=O)C2=O
endpoint: median tumor weight change, dose: 1.25 mg/kg/injection, schedule: Q01DX001 (ip), vehicle: saline with Tween-80
  T/C: 93 % of control and 98 % of control
endpoint: median tumor weight change, dose: 2.5 mg/kg/injection, schedule: Q01DX001 (ip), vehicle: saline with Tween-80
  T/C: 117 % of control and 121 % of control
endpoint: median tumor weight change, dose: 5.0 mg/kg/injection, schedule: Q01DX001 (ip), vehicle: saline with Tween-80
  T/C: 46 % of control

## CC(=O)Nc1ccc(C(=O)C=O)cc1
[1]
  T/C: 114 % of control
[2]
  T/C: 117 % of control
[3]
  T/C: 84 % of control
endpoint: median tumor weight (est.), dose: 100.0 mg/kg/injection, schedule: Q07DX005 (ip), vehicle: saline with Tween-80
  T/C: 93 % of control
[4]
  T/C: 80 % of control

## Cc1c2cc(Cl)c3ccccc3c2c[n+]2ccccc12
[1]
  T/C: 52 % of control
[2]
  T/C: 52 % of control and 57 % of control
[3]
  T/C: 61 % of control and 65 % of control

## Nc1nc2n[nH]nc2c(=O)[nH]1
endpoint: median tumor weight change, dose: 250.0 mg/kg/injection, schedule: Q01DX001 (ip), vehicle: suspension in saline
  T/C: 73 % of control
endpoint: median tumor weight change, dose: 500.0 mg/kg/injection, schedule: Q01DX001 (ip), vehicle: suspension in saline
  T/C: 45 % of control

## CNC(=O)n1c(N)nc(-c2ccccc2)c1-c1ccccc1
endpoint: median tumor weight change, dose: 31.25 mg/kg/injection, schedule: Q01DX001 (ip), vehicle: saline with Tween-80
  T/C: 93 % of control
[5]
  T/C: 92 % of control
[6]
  T/C: 79 % of control

## CC(=O)NC(CCc1ccc(Cl)c(Cl)c1)c1cccc(O)c(=O)c1 (stereo unspecified)
endpoint: median tumor weight change, dose: 31.0 mg/kg/injection, schedule: Q01DX001 (ip), vehicle: Klucel (hydroxypropylcellulose) (HPC)
  T/C: 114 % of control
endpoint: median tumor weight change, dose: 62.0 mg/kg/injection, schedule: Q01DX001 (ip), vehicle: Klucel (hydroxypropylcellulose) (HPC)
  T/C: 99 % of control
[7]
  T/C: 165 % of control
[8]
  T/C: 88 % of control
[9]
  T/C: 88 % of control

## O=Cc1ccc(C=O)c(Cl)c1
[7]
  T/C: 104 % of control
[8]
  T/C: 99 % of control
[9]
  T/C: 79 % of control
endpoint: median tumor weight change, dose: 1000.0 mg/kg/injection, schedule: Q01DX001 (ip), vehicle: Klucel (hydroxypropylcellulose) (HPC)
  T/C: 117 % of control
endpoint: median tumor weight change, dose: 2000.0 mg/kg/injection, schedule: Q01DX001 (ip), vehicle: Klucel (hydroxypropylcellulose) (HPC)
  T/C: 67 % of control

## CCCCOCN(COCCCC)C(C)Cc1ccccc1 (stereo unspecified)
[5]
  T/C: 100 % of control
[6]
  T/C: 85 % of control
[10]
  T/C: 110 % of control
endpoint: median tumor weight change, dose: 1000.0 mg/kg/injection, schedule: Q01DX001 (ip), vehicle: saline with Tween-80
  T/C: 80 % of control

## O=CN(SSN(C=O)C1CCCCC1)C1CCCCC1
[2]
  T/C: 101 % of control
[3]
  T/C: 123 % of control
[4]
  T/C: 100 % of control

## Oc1ccccc1C=NCCC[N-]CCCN=Cc1ccccc1O.[Co]
endpoint: median tumor weight (est.), dose: 12.5 mg/kg/injection, schedule: Q07DX005 (ip), vehicle: suspension in saline
  T/C: 162 % of control
endpoint: median tumor weight (est.), dose: 25.0 mg/kg/injection, schedule: Q07DX005 (ip), vehicle: suspension in saline
  T/C: 223 % of control
endpoint: median tumor weight (est.), dose: 50.0 mg/kg/injection, schedule: Q07DX005 (ip), vehicle: suspension in saline
  T/C: 180 % of control
endpoint: median tumor weight (est.), dose: 100.0 mg/kg/injection, schedule: Q07DX005 (ip), vehicle: suspension in saline
  T/C: 97 % of control

## COc1ccc([I+]c2cccc(Cl)c2)cc1Cl
endpoint: median tumor weight (est.), dose: 3.12 mg/kg/injection, schedule: Q07DX005 (ip), vehicle: saline with Tween-80
  T/C: 189 % of control
[1]
  T/C: 34 % of control
[3]
  T/C: 111 % of control

## O=C(N/N=C\c1cc(Br)cc(Br)c1O)N/N=C/c1cc(Br)cc(Br)c1O
[3]
  T/C: 60 % of control
[4]
  T/C: 100 % of control
endpoint: median tumor weight (est.), dose: 400.0 mg/kg/injection, schedule: Q07DX005 (ip), vehicle: saline with Tween-80
  T/C: 391 % of control

## Cc1c2cc[n+](CCN3CCCCC3)cc2c(C)c2c1[nH]c1ccc(O)cc12
endpoint: median tumor weight change, dose: 7.81 mg/kg/injection, schedule: Q01DX001 (ip), vehicle: suspension in saline
  T/C: 83 % of control
endpoint: median tumor weight change, dose: 15.6 mg/kg/injection, schedule: Q01DX001 (ip), vehicle: suspension in saline
  T/C: 102 % of control and 116 % of control

## CN(C)CCCNc1c2ccccc2nc2cccc([N+](=O)[O-])c12
endpoint: median tumor weight (est.), dose: 0.06 mg/kg/injection, schedule: Q07DX004 (ip), vehicle: saline
  T/C: 90 % of control
endpoint: median tumor weight (est.), dose: 15.0 micrograms/kg/injection, schedule: Q07DX005 (ip), vehicle: saline
  T/C: 86 % of control

## C=C(C)C1C2CC3(C)C4(CO4)C4OC4C3(O)C1C(=O)O2 (stereo unspecified)
endpoint: median tumor weight change, dose: 1.25 mg/kg/injection, schedule: Q01DX001 (ip), vehicle: Klucel (hydroxypropylcellulose) (HPC)
  T/C: 85 % of control

## ClCCCCCCCCCCc1ccccc1
endpoint: median tumor weight (est.), dose: 12.5 mg/kg/injection, schedule: Q07DX005 (ip), vehicle: Klucel (hydroxypropylcellulose) (HPC)
  T/C: 87 % of control
endpoint: median tumor weight (est.), dose: 25.0 mg/kg/injection, schedule: Q07DX005 (ip), vehicle: Klucel (hydroxypropylcellulose) (HPC)
  T/C: 88 % of control
endpoint: median tumor weight (est.), dose: 100.0 mg/kg/injection, schedule: Q07DX005 (ip), vehicle: Klucel (hydroxypropylcellulose) (HPC)
  T/C: 71 % of control
endpoint: median tumor weight (est.), dose: 200.0 mg/kg/injection, schedule: Q07DX005 (ip), vehicle: Klucel (hydroxypropylcellulose) (HPC)
  T/C: 71 % of control
endpoint: median tumor weight (est.), dose: 400.0 mg/kg/injection, schedule: Q07DX005 (ip), vehicle: Klucel (hydroxypropylcellulose) (HPC)
  T/C: 72 % of control

## BrC[P+](CBr)(CBr)CBr
[6]
  T/C: 124 % of control
[10]
  T/C: 152 % of control
